Activity calls are given as the source filed them. The rule behind the calls is not given here.
How the values were obtained:
[1] = Cytotoxicity against human Huh-7 cells assessed as reduction in cell viability incubated for 48 hrs by MTS assay; assay type: toxicity, cell-based
Human coronavirus 229E [2] = assay: Antiviral activity against Human coronavirus 229E expressing luciferase reporter gene infected in Huh-7 cells assessed as reduction in viral replication incubated for 24 hrs by renilla luciferase based luminometer assay; assay type: functional, organism-based; settings: for IC50: Huh-7, 24 h
[3] = Selectivity index, ratio of CC50 for cytotoxicity against human Huh-7 cells to IC50 for antiviral activity against Human coronavirus 229E expressing luciferase reporter gene infected in Huh-7 cells; assay type: toxicity, cell-based; settings: read-out: Ratio CC50/IC50
[4] = Cytotoxicity against African green monkey Vero E6 cells assessed as reduction in cell viability incubated for 48 hrs by MTS assay; assay type: toxicity, cell-based, Vero C1008; settings: chlorocebus sabaeus
SARS-CoV-2 = assay: Antiviral activity against SARS-CoV-2 infected in African green monkey Vero E6 cells assessed as reduction in viral replication incubated for 48 hrs by Alexa Fluor 488 staining based flow cytometric analysis; assay type: functional, organism-based, Severe acute respiratory syndrome coronavirus 2
[5] = Selectivity index, ratio of CC50 for cytotoxicity against African green monkey Vero E6 cells to IC50 for antiviral activity against SARS-CoV-2 infected in African green monkey Vero E6 cells; assay type: toxicity, cell-based; settings: read-out: Ratio CC50/IC50
Zika virus [6] = assay: Antiviral activity against ZIKV expressing GFP infected in African green monkey Vero E6 cells assessed as reduction in viral replication incubated for 24 hrs by flow cytometric analysis; assay type: functional, organism-based
Huh-7 = assay: Cytotoxicity against human Huh-7 cells assessed as reduction in cell viability at 3 to 400 uM incubated for 48 hrs by MTS assay; assay type: toxicity, cell-based; settings: huh-7, 48 h, dose 3-400 µM
[7] = Selectivity index, ratio of CC50 for cytotoxicity against African green monkey Vero E6 cells to IC50 for antiviral activity against ZIKV expressing GFP infected in African green monkey Vero E6 cells; assay type: toxicity, cell-based; settings: read-out: Ratio CC50/IC50
[8] = Cytotoxicity against human Huh-7 cells assessed as maximum non-toxic concentration at incubated for 48 hrs by MTS assay; assay type: toxicity, cell-based; settings: read-out: MNTD>90
Human coronavirus 229E [9] = assay: Antiviral activity against Human coronavirus 229E expressing luciferase reporter gene infected in Huh-7 cells assessed as reduction in viral replication at 6 uM incubated for 24 hrs by renilla luciferase based luminometer assay relative to control; assay type: functional; design: scale not given: the % may be the effect or the level left
Zika virus [10] = assay: Antiviral activity against ZIKV expressing GFP infected in African green monkey Vero E6 cells assessed as reduction in viral replication at 20 uM incubated for 24 hrs by flow cytometric analysis relative to control; assay type: functional; design: scale not given: the % may be the effect or the level left
Zika virus [11] = assay: Antiviral activity against ZIKV expressing GFP infected in African green monkey Vero E6 cells assessed as reduction in viral replication preincubated for 2 hrs followed by dilution to sub-therapeutic level and measured after 24 hrs by flow cytometric analysis; assay type: functional, organism-based; settings: time 26.0 hrs
Zika virus [12] = assay: Antiviral activity against ZIKV expressing GFP infected in African green monkey Vero E6 cells assessed as reduction in viral replication preincubated for 2 hrs followed by compound wash out and measured after 22 hrs by flow cytometric analysis; assay type: functional, organism-based; settings: time 24.0 hrs
Zika virus [13] = assay: Antiviral activity against ZIKV expressing GFP infected in African green monkey Vero E6 cells assessed as reduction in viral replication preincubated for 2 hrs without compound followed by compound addition and measured after 22 hrs by flow cytometric analysis; assay type: functional, organism-based
[14] = Severe acute respiratory syndrome coronavirus 2, Vero C1008, 48 h, read-out: IC50
[15] = Zika virus, Vero C1008, 24 h, read-out: IC50

| Compound | CC50 at 48 h [1] [µM] | IC50 (Human coronavirus 229E [2]) [µM] | selectivity ratio [3] | CC50 at 48 h [4] [µM] | IC50 (SARS-CoV-2; [14]) [µM] | selectivity ratio [5] | IC50 (Zika virus [6]; vero e6) | Activity (Huh-7) | Activity (Human coronavirus 229E [2]) | IC50 (SARS-CoV-2; vero e6) | IC50 (Zika virus [6]; [15]) [µM] | selectivity ratio [7] | MNTC at 48 h [8] [µM] | Activity (Human coronavirus 229E [9]) [%] | Activity (Zika virus [10]) [%] | Activity (Zika virus [11]) | Activity (Zika virus [12]) | Activity (Zika virus [13]) |
| --- | --- | --- | --- | --- | --- | --- | --- | --- | --- | --- | --- | --- | --- | --- | --- | --- | --- | --- |
| CC1(C)CCC[C@@]2(C)[C@H]1CC[C@]13CO[C@@H]4OC(=O)C=C4[C@H](C[C@@H]12)O3 | 215 | 58.8 | 3.7 | > 200 | 93.5 | 2.1 | Not Active | Toxic | – | – | – | – | – | – | – | – | – | – |
| CC(=O)OC[C@@]12CC[C@H]3C(C)(C)CCC[C@]3(C)[C@H]1C[C@@H](C1=CC(=O)OC1O)O2 (stereo not given in full) | 14 | 2.3 | 6.2 | 55.9 | – | – | – | Toxic | Dose-Dependent Effect | Not Active | 14.9 | 3.8 | 30 | 80 | >90 | inactive | Active | Active |
| CC1(C)CCC[C@@]2(C)[C@H]1CC[C@]1(O)COC(O)([C@@H](O)CC(=O)O)C[C@@H]12 (stereo not given in full) | 223 | > 100 | – | > 200 | – | – | Not Active | Toxic | – | Not Active | – | – | – | – | – | – | – | – |
| CC1(C)CCC[C@@]2(C)[C@H]1CC[C@]1(CO)O[C@H](C3=CC(=O)OC3O)C[C@@H]12 (stereo not given in full) | 172 | 25.3 | 6.8 | 200 | 6.3 | 3.2 | – | Toxic | – | – | 76 | 2.6 | – | – | – | inactive | Active | Active |
| CC1(C)CCC[C@@]2(C)[C@H]1CC[C@]13COC4(CC(=O)O[C@H]4O)[C@H](C[C@@H]12)O3 (stereo not given in full) | 435 | > 100 | – | > 200 | – | – | Not Active | Non-Toxic | – | Not Active | – | – | – | – | – | – | – | – |
| CC1(C)CCC[C@@]2(C)[C@H]1CC[C@@]1(CO)O[C@H](C3=CC(=O)OC3O)C[C@@H]12 (stereo not given in full) | 46.9 | 15.8 | 3 | 88.3 | – | – | – | Toxic | – | Not Active | 31.9 | 2.8 | 6 | – | – | inactive | Active | Active |
| CCC(CC)COC(=O)[C@H](C)N[P@](=O)(OC[C@H]1O[C@@](C#N)(c2ccc3c(N)ncnn23)[C@H](O)[C@@H]1O)Oc1ccccc1 [REMDESIVIR] | 90 | 0.04 | 2250 | > 100 | 25 | 4 | – | – | – | – | – | – | – | – | – | – | – | – |
